Measured values from patent publication US20110065796A1 (SHIRE LLC, priority 2009, published 2011).
Where a name gives a salt, the structure may show the parent alone. Read-outs that look alike come from different tables or passages of the source.

Columns and labels:
[1] = Comparative bioavailability study in monkeys in the fasted or fed state; format: in vivo, cynomolgus monkey; conditions: for Cmax: male, cynomolgus monkey, plasma, po, 0.5 mg/kg, read-out: mean Cmax prodrug
Experimental: Five male cynomolgus monkeys were used. Food was withdrawn from animals in fasted groups from the evening of the day prior to dosing until approximately 4 hours after dosing.
The formulations were prepared on the day of dosing and administered orally as soon as practicable up to a maximum of 2 hours after formulation.
Blood samples (0.5 mL) were collected from all animals pre-dose and at 0.5, 1, 2, 3, 4, 6, 8 10, 12, 16 and 24 hours after dosing.
Following processing, the resultant plasma was frozen and analysed by a qualified method. Pharmacokinetic evaluation was performed using a validated pharmacokinetic software package.

[2] = Pharmacokinetics in rat hepatic portal and tail veins after oral administration; format: in vivo
Experimental: Rats were surgically prepared under isofluorane anaesthesia by attaching a silicon catheter to the portal vein then exteriorising it at the nape of the neck with a blood collection port attached.
At each sampling time serial point blood samples (approximately 0.2 mL) were taken simultaneously from the lateral tail vein cannula and the hepatic portal cannula. After collection of the final blood sample each animal was killed by cervical dislocation. Blood samples were collected at 15, 30 minutes and 1, 2, 4, 8 and 24 hours post dose.
Pharmacokinetic parameters in portal and systemic plasma were derived by non-compartmental analysis (linear/logarithmic trapezoidal) using WinNonlin (Version 4.1) software.

[3] = Prodrug stability in simulated intestinal fluid; conditions: 37° C., pH 6.8, HPLC
Experimental: (§1) The remaining concentrations of the prodrugs were then assayed by H PLC.

[4] = Comparative bioavailability study of guanfacine in monkeys given guanfacine or prodrug conjugates; format: in vivo, cynomolgus monkey; conditions: oral, monkey
Experimental: The characteristics of the test animals are set out in Table 13.
The following pharmacokinetic parameters derived from the plasma analytical data were determined using Win Nonlin;

human α-2A adrenoceptor = biological target: T1, human α-2A adrenoceptor (Homo sapiens, UniProt P08913); assay: α-2A adrenoceptor binding assay ([3H] RX821002 competition, recombinant CHO cells); conditions: [3H] RX821002 (1 nM)
T1 construct: expressed in transfected cells; host or cells: CHO cells
T1 sequence (P08913 1-465): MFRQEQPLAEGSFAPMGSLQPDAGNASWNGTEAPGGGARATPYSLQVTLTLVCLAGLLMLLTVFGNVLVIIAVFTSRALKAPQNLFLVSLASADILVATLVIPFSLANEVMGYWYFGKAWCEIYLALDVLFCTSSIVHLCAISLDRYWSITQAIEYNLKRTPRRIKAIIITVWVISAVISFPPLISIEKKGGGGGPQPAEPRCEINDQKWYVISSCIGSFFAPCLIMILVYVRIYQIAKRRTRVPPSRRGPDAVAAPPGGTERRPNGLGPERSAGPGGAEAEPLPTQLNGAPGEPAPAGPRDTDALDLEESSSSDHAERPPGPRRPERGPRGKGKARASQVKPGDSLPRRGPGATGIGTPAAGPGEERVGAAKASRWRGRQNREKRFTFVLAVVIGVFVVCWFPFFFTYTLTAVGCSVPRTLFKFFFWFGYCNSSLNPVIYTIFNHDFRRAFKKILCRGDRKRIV
Experimental: The activation of this receptor is responsible for its intended therapeutic effect.
The binding assay methodology employed in this study followed that described by Langin et al. (Eur. J. Pharmacol. 167:95-104, 1989) and used human recombinant CHO cells expressing α-2 adrenoceptors. The competitive binding ligand was [3H] RX821002 (1 nM) which has a high affinity for the alpha-2A subtype.

[5] = tested on: gastrointestinal transit of a charcoal meal in the rat; assay: Charcoal propulsion test (gut motility) in rat; format: in vivo; conditions: oral
Experimental: The effect of a drug on gut motility can be studied by means of the charcoal propulsion test.
The method used was based on that described by Takemori et al. (J. Pharmacol. Exp. Ther. 169:39, 1969). Test treatments were administered orally 60 minutes prior to an oral dose of a 10% suspension of charcoal in 2.5% gum Arabic (2 ml/kg). Twenty minutes after dosing with charcoal, the rats were sacrificed and the entire gastrointestinal tract was removed quickly and carefully. The distance that the charcoal meal had traveled toward the caecum was measured and expressed as a percentage of the total gut length.

[6] = Prodrug stability in simulated gastric fluid; conditions: 37° C., pH 1.1, HPLC
Experimental: as §1

[7] = Prodrug stability in freshly withdrawn porcine intestinal fluid; format: in vitro ADME; conditions: for Prodrug remaining at 3 h: porcine intestinal fluid pH 6.8, 37° C., in % (unit assumed)
From the text: Many of the peptidases in the intestinal lumen may not be present in the USP simulated intestinal fluid preparations previously described. […] The prodrugs evaluated were selected on the basis of adequate pharmacokinetics (see Example 8).

[8] = Comparative pharmacokinetic screening study in the monkey (relative Cmax of guanfacine); conditions: for prodrug levels in plasma (in words): oral gavage, monkey screening study
Experimental: Blood samples were taken on 4 sampling occasions at various times up to 6 hours after administration and submitted to analysis for the parent drug and prodrug using a qualified LC-MS-MS assay.

[9] = cited from earlier work
[10] = Fasted, 0.5 mg/kg guanfacine equivalent dose, oral
[11] = Study 1, dose 0.1 mg/kg guanfacine free base equivalents
[12] = Study 1, dose 0.3 mg/kg guanfacine free base equivalents
[13] = Study 1, dose 1 mg/kg guanfacine free base equivalents
[14] = Study 1, dose 3 mg/kg guanfacine free base equivalents
[15] = Study 1, dose 5 mg/kg guanfacine free base equivalents
[16] = hepatic portal vein plasma, po, 1 mg/kg, read-out: Hepatic portal vein Prodrug AUC
[17] = hepatic portal vein plasma, po, 1 mg/kg, read-out: Hepatic portal vein Prodrug Cmax
[18] = tail vein (systemic) plasma, po, 1 mg/kg, read-out: Tail vein Prodrug AUC
[19] = tail vein (systemic) plasma, po, 1 mg/kg, read-out: Tail vein Prodrug Cmax
[20] = Study 2, dose 0.1 mg/kg guanfacine free base equivalents
[21] = Study 2, dose 0.3 mg/kg guanfacine free base equivalents
[22] = Study 2, dose 0.5 mg/kg guanfacine free base equivalents

Row | % change in GI transit vs vehicle [5, 11] | % change in GI transit vs vehicle [5, 12] [%] | % change in GI transit vs vehicle [5, 13] [%] | % change in GI transit vs vehicle [5, 14] [%] | % change in GI transit vs vehicle [5, 15] [%] | SMILES | % prodrug remaining following incubation for 2 h in simulated intestinal fluid pH 6.8 [3] [%] | Ki (human α-2A adrenoceptor) [nM] | % prodrug remaining following incubation for 1 h in simulated gastric fluid pH 1.1 [6] [%] | stability in porcine intestinal fluid (in words) [7] | Prodrug remaining at 3 h [7] | AUC [2, 16] [ng·h/mL] | Cmax [2, 17] [ng/mL] | AUC [2, 18] [ng·h/mL] | Cmax [2, 19] [ng/mL] | prodrug levels in plasma (in words) [8] | % change in GI transit vs vehicle [5, 20] [%] | % change in GI transit vs vehicle [5, 21] [%] | other results
1 | +3% | −30 | −42 | −42 | −42 | CC(C)[C@H](N)C(=O)NCCC(=O)NC(=N)NC(=O)Cc1c(Cl)cccc1Cl [Compound 2, Guanfacine (β-Alanine-(S)-Valine) Amide] | 89 | 1200 | 75 | intermediate stability | 77.8 | 19.2 | 46.4 | 2.67 | 4.2 | detectable prodrug levels in plasma | – | – | mean Cmax prodrug [1, 10]: BLQ; Cmax [1]: 2.15 ng/mL
2 | −6% | −22 | −48 | −44 | −42 | CC(C)[C@@H](N)C(=O)N[C@@H](CCC(=O)NC(=N)NC(=O)Cc1c(Cl)cccc1Cl)C(=O)O [Compound 5, Guanfacine ((S)-γ-Glutamate-(R)-Valine) Amide] | 89 | 1600 | 86 | – | 91.2 | 61 | 41.5 | 4.6 | 3.5 | – | – | – | plasma guanfacine profile (in words) [4]: sustained guanfacine concentrations; % change in GI transit vs vehicle ([5]; Study 1, dose 1.7 mg/kg guanfacine free base equivalents): −50%
3 | – | – | – | – | – | CC(C)[C@H](N)C(=O)N[C@@H](COC(=O)NC(=N)NC(=O)Cc1c(Cl)cccc1Cl)C(=O)O [Compound 17, Guanfacine ((S)-Serine-(S)-Valine) Carbamate] | 78 | – | 93 | very unstable | – | – | – | – | – | total absence of prodrug in the plasma | – | – | –
4 | – | – | – | – | – | C[C@@H](N)C(=O)N[C@@H](CCC(=O)NC(=N)NC(=O)Cc1c(Cl)cccc1Cl)C(=O)O [Compound 41, Guanfacine ((S)-γ-Glutamate-(R)-Alanine) Amide] | 83 | 1700 | 70 | high stability | 89.70 ± 3.60 | 43.5 | 31.9 | 8 | 6.14 | detectable prodrug levels in plasma | – | – | –
5 | – | – | – | – | – | CNCC(=O)N[C@@H](COC(=O)NC(=N)NC(=O)Cc1c(Cl)cccc1Cl)C(=O)O [Compound 61, Guanfacine ((S)-Serine-Sarcosine) Carbamate] | 96 | 10000 | 92 | intermediate stability | 66.86 ± 2.10 | 51.8 | 43.4 | 5.09 | 7.07 | detectable prodrug levels in plasma | −8 | −25 | comparative systemic exposure to guanfacine vs guanfacine at an equimolar dose (in words) ([2]; oral): similar; % change in GI transit vs vehicle [5, 22]: −31%
6 | – | – | – | – | – | CNCC(=O)N[C@H](C(=O)O)[C@@H](C)OC(=O)NC(=N)NC(=O)Cc1c(Cl)cccc1Cl [Compound 63, Guanfacine ((R,S)-Threonine-Sarcosine) Carbamate] | 99 | – | 86 | high stability | 95.04 ± 9.25 | 66.5 | 23.7 | 20.2 | 9.37 | detectable prodrug levels in plasma | 0 | −13 | comparative systemic exposure to guanfacine vs guanfacine at an equimolar dose (in words) ([2]; oral): similar; % change in GI transit vs vehicle [5, 22]: −49%
7 | −52% | −55 | −47 | – | – | N=C(N)NC(=O)Cc1c(Cl)cccc1Cl [Guanfacine, N-Amidino-2-(2,6-dichlorophenyl)acetamide monohydrochloride, reference compound] | – | – | – | – | – | – | – | – | – | – | −41 | −56 | bioavailability ([8]; cynomolgus monkey, in vivo, po): 35%; % change in GI transit vs vehicle ([5]; Study 2, dose 0.03 mg/kg guanfacine free base equivalents): −13%; reduction in the distance traveled by the charcoal plug within 20 minutes, compared to control group ([5]; 0.1 mg base/kg): 41-52%; bioavailability of guanfacine in man [9]: > 80%

Row | SMILES | % change in GI transit vs vehicle [5, 11] | % change in GI transit vs vehicle [5, 12] [%] | % change in GI transit vs vehicle [5, 13] [%] | % change in GI transit vs vehicle [5, 14] [%] | % change in GI transit vs vehicle [5, 15] [%] | % prodrug remaining following incubation for 2 h in simulated intestinal fluid pH 6.8 [3] [%] | Ki (human α-2A adrenoceptor) [nM] | % prodrug remaining following incubation for 1 h in simulated gastric fluid pH 1.1 [6] [%] | stability in porcine intestinal fluid (in words) [7] | Prodrug remaining at 3 h [7] | AUC [2, 16] [ng·h/mL] | Cmax [2, 17] [ng/mL] | AUC [2, 18] [ng·h/mL] | Cmax [2, 19] [ng/mL] | prodrug levels in plasma (in words) [8] | % change in GI transit vs vehicle [5, 20] [%] | % change in GI transit vs vehicle [5, 21] [%] | other results
8 | CC(C)[C@H](NC(=O)CCCC(=O)NC(=N)NC(=O)Cc1c(Cl)cccc1Cl)C(=O)O [Compound 1, Guanfacine (Glutaryl-(S)-Valine) Amide] | −9% | −6 | −45 | −50 | −53 | 92 | 7200 | 80 | high stability | 100.6 | – | – | – | – | – | – | – | Cmax [1, 10]: 9.23 ng/mL; Cmax ([1]; Fed, 0.5 mg/kg guanfacine equivalent dose, oral): 7.19 ng/mL; AUC ([2]; hepatic portal vein plasma, oral, 0.5 mg/kg (footnote *), read-out: Hepatic portal vein Prodrug AUC): 159 ng·h/mL; Cmax ([2]; hepatic portal vein plasma, oral, 0.5 mg/kg (footnote *), read-out: Hepatic portal vein Prodrug Cmax): 56.3 ng/mL; AUC ([2]; tail vein (systemic) plasma, oral, 0.5 mg/kg (footnote *), read-out: Tail vein Prodrug AUC): 29.6 ng·h/mL; Cmax ([2]; tail vein (systemic) plasma, oral, 0.5 mg/kg (footnote *), read-out: Tail vein Prodrug Cmax): 8.26 ng/mL; plasma guanfacine profile (in words) [4]: sustained guanfacine concentrations
